According to PubChem BioAssay AID256 (DTP/NCI, 2004):
Values joined by “and” are separate entries in the source; they are usually repeats but may differ in a detail not shown here. Identical values can stand only once. Toxic doses and inconclusive results are not listed. The calls were made as follows: active = survival T/C of 150% or more; inactive = T/C below 125% in these data.

System: CD2F1 mice, L1210 leukemia ip, survival T/C
Assay: NCI In Vivo Anticancer Drug Screen. Data for tumor model L1210 Leukemia (intraperitoneal) in CD2F1 (CDF1) mice
Details: higher = longer survival
Procedure, shortened: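 Tumor-bearing mice (transplanted tumor) were split into treated and vehicle control groups, and the measured endpoint of each treated group was divided by that of its vehicle controls.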

[1] = endpoint: mean survival time, dose: 100.0 mg/kg/injection, schedule: Q04DX002 (ip), vehicle: saline with Tween-80
[2] = endpoint: mean survival time, dose: 200.0 mg/kg/injection, schedule: Q04DX002 (ip), vehicle: saline with Tween-80
[3] = endpoint: mean survival time, dose: 400.0 mg/kg/injection, schedule: Q04DX002 (ip), vehicle: saline with Tween-80
[4] = endpoint: mean survival time, dose: 100.0 mg/kg/injection, schedule: Q01DX009 (ip), vehicle: saline with Tween-80
[5] = endpoint: mean survival time, dose: 200.0 mg/kg/injection, schedule: Q01DX009 (ip), vehicle: saline with Tween-80
[6] = endpoint: mean survival time, dose: 400.0 mg/kg/injection, schedule: Q01DX009 (ip), vehicle: saline with Tween-80

Measured: T/C

C=CC(C)(C)S(=O)[O-].[C-]#[O+].[C-]#[O+].[C-]#[O+].[Mn].[c-]1[c-][c-][cH-][c-]1
inactive: endpoint: mean survival time, dose: 25.0 mg/kg/injection, schedule: Q04DX002 (ip), vehicle: saline with Tween-80 93 % of control | endpoint: mean survival time, dose: 50.0 mg/kg/injection, schedule: Q04DX002 (ip), vehicle: saline with Tween-80 86 % of control | [1] 93 % of control

Nc1nc[nH]c(=O)c1NC(=O)c1cccc([N+](=O)[O-])c1
inactive: endpoint: mean survival time, dose: 50.0 mg/kg/injection, schedule: Q04DX003 (ip), vehicle: saline with Tween-80 101 % of control and 111 % of control | [1] 96 % of control and 109 % of control | [2] 92 % of control and 104 % of control | [3] 114 % of control and 96 % of control

Cc1ccccc1N
inactive: [4] 102 % of control | [5] 107 % of control

C1=C\CCCCCCCC/1
inactive: endpoint: mean survival time, dose: 100.0 mg/kg/injection, schedule: Q04DX003 (ip), vehicle: saline with Tween-80 100 % of control | endpoint: mean survival time, dose: 400.0 mg/kg/injection, schedule: Q04DX003 (ip), vehicle: saline with Tween-80 100 % of control

CC(=O)c1c(C(C)C)cc(C(C)C)cc1C(C)C
inactive: [4] 98 % of control | [5] 101 % of control | [6] 101 % of control

O=Cc1cc(C(=O)O)ccc1O
inactive: endpoint: mean survival time, dose: 100.0 mg/kg/injection, schedule: Q01DX001 (ip), vehicle: saline 100 % of control | endpoint: mean survival time, dose: 200.0 mg/kg/injection, schedule: Q01DX001 (ip), vehicle: saline 97 % of control | endpoint: mean survival time, dose: 400.0 mg/kg/injection, schedule: Q01DX001 (ip), vehicle: saline 94 % of control

O=C(CC1CCCCC1)N/N=C/c1cccc([N+](=O)[O-])c1
inactive: [4] 90 % of control | [5] 93 % of control | [6] 90 % of control

COc1cccc2c1CCC1=C2CC=C2CC3(CCC21C)OCCO3 (stereo not given)
inactive: endpoint: mean survival time, dose: 100.0 mg/kg/injection, schedule: Q04DX003 (sc), vehicle: steriod suspending solution 91 % of control | endpoint: mean survival time, dose: 200.0 mg/kg/injection, schedule: Q04DX003 (sc), vehicle: steriod suspending solution 96 % of control | endpoint: mean survival time, dose: 400.0 mg/kg/injection, schedule: Q04DX003 (sc), vehicle: steriod suspending solution 97 % of control

CCCCNC(C)(C)C(SS)c1cccs1 (stereo not given)
inactive: endpoint: mean survival time, dose: 66.0 mg/kg/injection, schedule: Q01DX009 (ip), vehicle: other 101 % of control | endpoint: mean survival time, dose: 150.0 mg/kg/injection, schedule: Q01DX009 (ip), vehicle: other 108 % of control | endpoint: mean survival time, dose: 200.0 mg/kg/injection, schedule: Q01DX009 (ip), vehicle: other 94 % of control | endpoint: mean survival time, dose: 400.0 mg/kg/injection, schedule: Q01DX009 (ip), vehicle: other 92 % of control

Brc1ccc(C[N+]23CCN(CC2)CC3)cc1
inactive: endpoint: mean survival time, dose: 12.5 mg/kg/injection, schedule: Q04DX003 (ip), vehicle: saline 98 % of control and 111 % of control | endpoint: mean survival time, dose: 25.0 mg/kg/injection, schedule: Q04DX003 (ip), vehicle: saline 93 % of control and 100 % of control | endpoint: mean survival time, dose: 50.0 mg/kg/injection, schedule: Q04DX003 (ip), vehicle: saline 95 % of control and 103 % of control

Cc1nc(N)nc(N)c1-c1ccc(Cl)c(Cl)c1
inactive: endpoint: mean survival time, dose: 1.0 mg/kg/injection, schedule: Q01DX009 (ip), vehicle: Klucel (hydroxypropylcellulose) (HPC) 106 % of control | endpoint: mean survival time, dose: 1.0 mg/kg/injection, schedule: Q01DX009 (ip), vehicle: saline with Tween-80 107 % of control | endpoint: mean survival time, dose: 1.0 mg/kg/injection, schedule: Q02DX005 (ip), vehicle: saline 115 % of control | endpoint: mean survival time, dose: 1.25 mg/kg/injection, schedule: Q01DX005 (ip), vehicle: distilled water + Tween-80 95 % of control | endpoint: mean survival time, dose: 1.25 mg/kg/injection, schedule: Q01DX005 (ip), vehicle: water 104 % of control | endpoint: mean survival time, dose: 1.3 mg/kg/injection, schedule: Q01DX009 (sc), vehicle: other 123 % of control | endpoint: mean survival time, dose: 2.0 mg/kg/injection, schedule: Q01DX009 (ip), vehicle: Klucel (hydroxypropylcellulose) (HPC) 107 % of control | endpoint: mean survival time, dose: 2.0 mg/kg/injection, schedule: Q01DX009 (ip), vehicle: saline with Tween-80 119 % of control | endpoint: mean survival time, dose: 2.0 mg/kg/injection, schedule: Q02DX005 (ip), vehicle: saline 115 % of control | endpoint: mean survival time, dose: 2.5 mg/kg/injection, schedule: Q01DX005 (ip), vehicle: distilled water + Tween-80 93 % of control | endpoint: mean survival time, dose: 2.5 mg/kg/injection, schedule: Q01DX005 (ip), vehicle: water 100 % of control | endpoint: mean survival time, dose: 4.0 mg/kg/injection, schedule: Q01DX009 (ip), vehicle: Klucel (hydroxypropylcellulose) (HPC) 109 % of control | endpoint: mean survival time, dose: 4.0 mg/kg/injection, schedule: Q02DX005 (ip), vehicle: saline 107 % of control | endpoint: mean survival time, dose: 4.0 mg/kg/injection, schedule: Q03DX002 (ip), vehicle: saline with Tween-80 108 % of control | endpoint: mean survival time, dose: 5.0 mg/kg/injection, schedule: Q01DX005 (ip), vehicle: distilled water + Tween-80 98 % of control | endpoint: mean survival time, dose: 5.0 mg/kg/injection, schedule: Q01DX005 (ip), vehicle: water 100 % of control | endpoint: mean survival time, dose: 5.0 mg/kg/injection, schedule: Q02DX005 (ip), vehicle: saline 87 % of control | endpoint: mean survival time, dose: 5.0 mg/kg/injection, schedule: Q## X005 (ip), vehicle: saline 117 % of control | endpoint: mean survival time, dose: 6.0 mg/kg/injection, schedule: Q03DX002 (ip), vehicle: saline with Tween-80 103 % of control | endpoint: mean survival time, dose: 8.0 mg/kg/injection, schedule: Q03DX002 (ip), vehicle: saline with Tween-80 93 % of control | endpoint: mean survival time, dose: 10.0 mg/kg/injection, schedule: Q01DX005 (ip), vehicle: distilled water + Tween-80 102 % of control | endpoint: mean survival time, dose: 10.0 mg/kg/injection, schedule: Q01DX005 (ip), vehicle: water 98 % of control | endpoint: mean survival time, dose: 10.0 mg/kg/injection, schedule: Q03DX002 (ip), vehicle: saline with Tween-80 110 % of control | endpoint: mean survival time, dose: 10.0 mg/kg/injection, schedule: Q## X005 (ip), vehicle: saline 102 % of control | endpoint: mean survival time, dose: 12.0 mg/kg/injection, schedule: Q03DX002 (ip), vehicle: saline with Tween-80 117 % of control | endpoint: mean survival time, dose: 16.0 mg/kg/injection, schedule: Q01DX009 (ip), vehicle: Klucel (hydroxypropylcellulose) (HPC) 111 % of control | endpoint: mean survival time, dose: 20.0 mg/kg/injection, schedule: Q01DX005 (ip), vehicle: distilled water + Tween-80 100 % of control | endpoint: mean survival time, dose: 20.0 mg/kg/injection, schedule: Q01DX005 (ip), vehicle: water 98 % of control | endpoint: mean survival time, dose: 20.0 mg/kg/injection, schedule: Q04DX002 (ip), vehicle: saline 97 % of control | endpoint: mean survival time, dose: 20.0 mg/kg/injection, schedule: Q## X005 (ip), vehicle: saline 88 % of control | endpoint: mean survival time, dose: 30.0 mg/kg/injection, schedule: Q04DX002 (ip), vehicle: saline 107 % of control | endpoint: mean survival time, dose: 40.0 mg/kg/injection, schedule: Q04DX002 (ip), vehicle: saline 118 % of control and 103 % of control | endpoint: mean survival time, dose: 50.0 mg/kg/injection, schedule: Q04DX002 (ip), vehicle: saline 100 % of control | endpoint: mean survival time, dose: 60.0 mg/kg/injection, schedule: Q04DX002 (ip), vehicle: saline 108 % of control | endpoint: mean survival time, dose: 75.0 mg/kg/injection, schedule: Q04DX003 (ip), vehicle: saline 118 % of control | endpoint: median survival time, dose: 0.62 mg/kg/injection, schedule: Q01DX009 (ip), vehicle: saline 96 % of control | endpoint: median survival time, dose: 1.25 mg/kg/injection, schedule: Q01DX009 (ip), vehicle: saline 97 % of control | endpoint: median survival time, dose: 5.0 mg/kg/injection, schedule: Q01DX009 (ip), vehicle: saline 111 % of control | endpoint: median survival time, dose: 10.0 mg/kg/injection, schedule: Q01DX009 (ip), vehicle: saline 113 % of control | endpoint: median survival time, dose: 20.0 mg/kg/injection, schedule: Q01DX009 (ip), vehicle: saline 97 % of control

FC(F)Cc1cccc(C(F)(F)F)c1
inactive: endpoint: mean survival time, dose: 100.0 mg/kg/injection, schedule: Q01DX001 (ip), vehicle: saline with Tween-80 107 % of control | endpoint: mean survival time, dose: 100.0 mg/kg/injection, schedule: Q04DX003 (ip), vehicle: saline sonified 98 % of control | endpoint: mean survival time, dose: 200.0 mg/kg/injection, schedule: Q01DX001 (ip), vehicle: saline with Tween-80 103 % of control | endpoint: mean survival time, dose: 200.0 mg/kg/injection, schedule: Q04DX003 (ip), vehicle: saline sonified 100 % of control | endpoint: mean survival time, dose: 400.0 mg/kg/injection, schedule: Q01DX001 (ip), vehicle: saline with Tween-80 104 % of control | endpoint: mean survival time, dose: 400.0 mg/kg/injection, schedule: Q04DX003 (ip), vehicle: saline sonified 100 % of control

CCOC(=O)CNC(=O)NC
inactive: endpoint: mean survival time, dose: 100.0 mg/kg/injection, schedule: Q01DX009 (ip), vehicle: saline 100 % of control | endpoint: mean survival time, dose: 200.0 mg/kg/injection, schedule: Q01DX009 (ip), vehicle: saline 98 % of control | endpoint: mean survival time, dose: 400.0 mg/kg/injection, schedule: Q01DX009 (ip), vehicle: saline 100 % of control

C/C(=N\NS(=O)(=O)c1ccc(C)cc1)c1ccccc1
inactive: [1] 108 % of control | [2] 96 % of control | [3] 103 % of control

Clc1nc2ccccc2[nH]1
inactive: endpoint: mean survival time, dose: 100.0 mg/kg/injection, schedule: Q04DX003 (ip), vehicle: saline 98 % of control | endpoint: mean survival time, dose: 200.0 mg/kg/injection, schedule: Q04DX003 (ip), vehicle: saline 100 % of control | endpoint: mean survival time, dose: 400.0 mg/kg/injection, schedule: Q04DX003 (ip), vehicle: saline 90 % of control
